Broadly, the inhibition is the drop in the measured response relative to a control, in per cent.

Among the data in ChEMBL document CHEMBL3994565 (Medchemcomm, 2016) are viability and inhibition values, retold here.

Data set [1] can be described thus: Cytotoxicity against MDCK cells assessed as cell viability at 100 uM after 40 hrs by CellTiter-Glo assay relative to control. Type of data set: cell-based, Canis lupus familiaris. Particulars: dog, read-out: Activity. For orientation: Cellular ATP, detected with luciferase, serves as a proxy for viable cell number.
The nature of data set [2]: Antiviral activity against Influenza A virus (A/WSN/33(H1N1)) infected in MDCK cells assessed as inhibition of virus-induced cytopathic effect at 100 uM incubated for 40 hrs by CellTiter-Glo assay. Type of data set: functional, Influenza A virus (A/WSN/1933(H1N1)).

For the compound `COC(=O)[C@@]1(OCCn2cc(CNC(=O)[C@]34CC[C@@H](C)[C@H](C)[C@@H]3C3=CC[C@@H]5[C@@]6(C)CC[C@H](O)C(C)(C)[C@@H]6CC[C@@]5(C)[C@]3(C)CC4)nn2)C[C@H](OC(C)=O)[C@@H](NC(C)=O)[C@H]([C@H](OC(C)=O)[C@@H](COC(C)=O)OC(C)=O)O1`, the viability at 40 h, 100 µM in data set [1] was 3.3%. Still for that read-out and setting: in the case of `C[C@H]1[C@H](C)CC[C@]2(C(=O)O)CC[C@]3(C)C(=CC[C@@H]4[C@@]5(C)CC[C@H](O)C(C)(C)[C@@H]5CC[C@]43C)[C@H]12` [URSOLIC ACID] it was 0.4%.

As to `COC(=O)[C@@]1(OCCn2cc(CNC(=O)[C@]34CCC(C)(C)C[C@@H]3C3=CC[C@@H]5[C@@]6(C)CC[C@H](O)C(C)(C)[C@@H]6CC[C@@]5(C)[C@]3(C)C[C@H]4O)nn2)C[C@H](O)[C@@H](NC(C)=O)[C@H]([C@H](O)[C@H](O)CO)O1`, in data set [1], the viability at 40 h, 100 µM turned out to be 107%. The inhibition at 100 µM in data set [2] was 2.2%. Take `C=C(C)[C@@H]1CC[C@]2(C(=O)NCc3cn(CCO[C@]4(C(=O)OC)C[C@H](O)[C@@H](NC(C)=O)[C@H]([C@H](O)[C@H](O)CO)O4)nn3)CC[C@]3(C)[C@H](CC[C@@H]4[C@@]5(C)CC[C@H](O)C(C)(C)[C@@H]5CC[C@]43C)[C@@H]12`: in data set [1], the viability at 40 h, 100 µM was 104%. Moreover, the inhibition at 100 µM in data set [2] was 12.2%. On to `COC(=O)[C@@]1(n2cc(CNC(=O)[C@]34CC[C@@H](C)[C@H](C)[C@@H]3C3=CC[C@@H]5[C@@]6(C)CC[C@H](O)C(C)(C)[C@@H]6CC[C@@]5(C)[C@]3(C)CC4)nn2)C[C@H](O)[C@@H](NC(C)=O)[C@H]([C@H](O)[C@H](O)CO)O1`, for which the viability at 40 h, 100 µM in data set [1] stood at 12.2%. Regarding `COC(=O)[C@@]1(n2cc(CNC(=O)[C@]34CCC(C)(C)C[C@@H]3C3=CC[C@@H]5[C@@]6(C)CC[C@H](O)C(C)(C)[C@@H]6CC[C@@]5(C)[C@]3(C)CC4)nn2)C[C@H](O)[C@@H](NC(C)=O)[C@H]([C@H](O)[C@H](O)CO)O1`, the viability at 40 h, 100 µM in data set [1] stood at 106%. For the same compound, the inhibition at 100 µM in data set [2] is -4.6%. With `COC(=O)[C@@]1(OCCn2cc(CNC(=O)[C@]34CC[C@@H](C)[C@H](C)[C@@H]3C3=CC[C@@H]5[C@@]6(C)CC[C@H](O)C(C)(C)[C@@H]6CC[C@@]5(C)[C@]3(C)CC4)nn2)C[C@H](O)[C@@H](NC(C)=O)[C@H]([C@H](O)[C@H](O)CO)O1`, the viability at 40 h, 100 µM in data set [1] was determined as 20.1%. On the same count and under the same terms, in the case of `COC(=O)[C@@]1(n2cc(CNC(=O)[C@]34CC[C@@H](C)[C@H](C)[C@@H]3C3=CC[C@@H]5[C@@]6(C)CC[C@H](O)C(C)(C)[C@@H]6CC[C@@]5(C)[C@]3(C)CC4)nn2)C[C@H](OC(C)=O)[C@@H](NC(C)=O)[C@H]([C@H](OC(C)=O)[C@@H](COC(C)=O)OC(C)=O)O1` it was 2.5%. On the same count and under the same terms, the value for `CC1(C)CC[C@]2(C(=O)O)[C@H](O)C[C@]3(C)C(=CC[C@@H]4[C@@]5(C)CC[C@H](O)C(C)(C)[C@@H]5CC[C@]43C)[C@@H]2C1` was 40.1%; that for `COC(=O)[C@@]1(OCCOC(=O)[C@]23CC[C@@H](C)[C@H](C)[C@@H]2C2=CC[C@@H]4[C@@]5(C)CC[C@H](O)C(C)(C)[C@@H]5CC[C@@]4(C)[C@]2(C)CC3)C[C@H](OC(C)=O)[C@@H](NC(C)=O)[C@H]([C@H](OC(C)=O)[C@@H](COC(C)=O)OC(C)=O)O1` was 0.2%. Consider `CC1(C)CC[C@]2(C(=O)O)CC[C@]3(C)C(=CC[C@@H]4[C@@]5(C)CC[C@H](O)C(C)(C)[C@@H]5CC[C@]43C)[C@@H]2C1` [OLEANOLIC_ACID], for which, in data set [1], the viability at 40 h, 100 µM was determined as 60.9%. Same read-out and setting: in the case of `COC(=O)[C@@]1(OCCOC(=O)[C@]23CC[C@@H](C)[C@H](C)[C@@H]2C2=CC[C@@H]4[C@@]5(C)CC[C@H](O)C(C)(C)[C@@H]5CC[C@@]4(C)[C@]2(C)CC3)C[C@H](O)[C@@H](NC(C)=O)[C@H]([C@H](O)[C@H](O)CO)O1` it was 0.1%.
